“Also recorded” adds a separate entry of the source.
How the values were obtained:
Corynebacterium species [1] = conditions: natural resistance; fosfomycin resistance breakpoint >32 μg/mL; cited from earlier work
[2] = tested on: S. aureus fosfomycin-resistant mutants; experiment: Fosfomycin MIC of bacteria forming colonies on negative-control plates, agar dilution method; format: cell-based, Staphylococcus aureus
Procedure: (§1) A 5 McFarland suspension of Corynebacterium aurimucosum CIP 102616 was prepared from a 48 h-culture on Columbia 5% sheep blood agar at 35+/−2° C., and 300 μl of this suspension (≈10^7 CFU) were inoculated by swabbing on a 90 mm diameter blood agar plate containing 50 μg/mL of fosfomycin; 300 μl of saline was inoculated as “negative control” (fosfomycin-containing agar plate not inoculated with C. aurimucosum). A 10 McFarland suspension of S. aureus (ATCC 29213 or NCTC 12493) was prepared as described in Example 1, and 20 μl drops of this suspension (≈10^7 CFU) were spread out on a 47-mm diameter, 0.2 μm filter placed on top of the agar plate. Plates were incubated at 35+/−2° C., and the growth of fosfomycin-resistant mutants was determined as described in Example 1. Fosfomycin MIC values of bacteria forming fosfomycin-resistant colonies on “negative-control” plates were determined using the agar dilution method.

S. aureus ATCC 29213 [3] = experiment: Co-culture on fosfomycin-containing blood agar: growth of fosfomycin-resistant mutant colonies; format: cell-based, Staphylococcus aureus; conditions: ≈10^7 CFU S. aureus on 0.2 μm filter, blood agar with 50 μg/mL fosfomycin, no non-pathogenic microorganism
Procedure: as §1
(§2) Serial 1/5 dilutions were prepared from a 100 McFarland suspension of C. aurimucosum and 250 μl of each bacterial suspension was inoculated by swabbing on a 90 mm diameter blood agar plate containing 50 μg/mL of fosfomycin, in order to obtain ≈10^9, ≈2×10^8, ≈4×10^7, ≈8×10^6, ≈1.6×10^6, ≈3.2×10^5, ≈6.4×10^4, ≈1.3×10^4, ≈2.5×10^3, ≈5×10^2, ≈10^2, and ≈20 CFU per plate. Materials and methods were otherwise as described in Example 2. […]

S. aureus NCTC 12493 [4] = experiment: as above; format: cell-based, Staphylococcus aureus; conditions: ≈10^7 CFU S. aureus on 0.2 μm filter, blood agar with 50 μg/mL fosfomycin, no non-pathogenic microorganism
Procedure: as §1, §2

Corynebacterium species [5] = conditions: natural resistance; mupirocin resistance breakpoint >2 μg/mL; cited from earlier work
S. aureus ATCC 29213 [6] = experiment: Co-culture on mupirocin-containing blood agar: growth of mupirocin-resistant mutant colonies; format: cell-based, Staphylococcus aureus; conditions: ≈10^9 CFU S. aureus on 0.2 μm filter, blood agar with 8 μg/mL mupirocin, no non-pathogenic microorganism
Procedure: (§3) A 5 McFarland suspension of Corynebacterium aurimucosum CIP 102616 was prepared as described in Example 2, and 300 μl of this suspension (≈10^7 CFU) were inoculated by swabbing on a 90 mm diameter blood agar plate containing 8 μg/mL of mupirocin; 300 μl of saline was inoculated as “negative control” (mupirocin-containing agar plate not inoculated with C. aurimucosum). Materials and methods were otherwise as described in Example 2, except that ≈10^9 CFU of S. aureus (ATCC 29213 or NCTC 12493) were spread out on the 0.2 μm filter placed on top of the agar plate.

S. aureus NCTC 12493 [7] = experiment: as above; format: cell-based, Staphylococcus aureus; conditions: ≈10^9 CFU S. aureus on 0.2 μm filter, blood agar with 8 μg/mL mupirocin, no non-pathogenic microorganism
Procedure: as §3

[8] = tested on: S. aureus rifampicin-resistant mutants; experiment: Rifampicin MIC of bacteria forming colonies on negative-control plates, agar dilution method; format: cell-based, Staphylococcus aureus
Procedure: A 5 McFarland suspension of CIP 102616 Rif^R was prepared from a 48 h-culture on Columbia 5% sheep blood agar at 35+/−2° C., and 300 μl of this suspension (≈10^7 CFU) was inoculated by swabbing on a 90 mm diameter blood agar plate containing 20 μg/mL of rifampicin; 300 μl of saline was inoculated as “negative control” (rifampicin-containing agar plate not inoculated with CIP 102616 Rif^R). Materials and methods were otherwise as described in Example 2, except that one 40 μl drop (≈10^7 CFU) was spread out on each filter. Rifampicin MIC values of bacteria forming rifampicin-resistant colonies on “negative-control” plates were determined using the agar dilution method.

[9] = tested on: S. epidermidis Rif^R mutant; experiment: Rifampicin MIC, agar dilution method; format: cell-based; conditions: Staphylococcus epidermidis, rifampicin resistance breakpoint MIC >16 μg/mL
[10] = tested on: C. aurimucosum Rif^R mutant; experiment: Rifampicin MIC, agar dilution method; format: cell-based; conditions: Corynebacterium aurimucosum, rifampicin resistance breakpoint MIC >16 μg/mL
Procedure: Spontaneous rifampicin-resistant colonies were obtained in one step by plating ≈10^9 CFU of C. aurimucosum CIP 102616 on blood agar plates supplemented with 20 μg/mL of rifampicin. Five clones were re-isolated on rifampicin-containing plates, and one of them was selected (C. aurimucosum CIP 102616 Rif^R mutant).

C[C@@H]1O[C@@H]1P(=O)(O)O [fosfomycin]
fosfomycin MIC values (Corynebacterium species [1]): > 256 µg/mL
MIC ([2]; Staphylococcus aureus, read-out: fosfomycin MIC values of colonies on negative-control plates): ≥ 32 µg/mL
share of fosfomycin-resistant mutant colonies with MIC of 64 μg/mL or higher ([2]; agar dilution method): ≈ 50%
share of fosfomycin-resistant mutant colonies with MIC of 256 μg/mL or higher ([2]; agar dilution method): ≈ 30%
fosfomycin-resistant mutant colonies, fosfomycin alone (S. aureus ATCC 29213 [3]): colonies of fosfomycin-resistant mutants were detected; also recorded: Fosfomycin-resistant colonies developed
fosfomycin-resistant mutant colonies, fosfomycin alone (S. aureus NCTC 12493 [4]): colonies of fosfomycin-resistant mutants were detected; also recorded: Fosfomycin-resistant colonies developed

C/C(=C\C(=O)OCCCCCCCCC(=O)O)C[C@@H]1OC[C@H](C[C@@H]2O[C@H]2[C@@H](C)[C@H](C)O)[C@@H](O)[C@H]1O [mupirocin]
mupirocin MIC values (Corynebacterium species [5]): > 16 µg/mL
mupirocin-resistant mutant colonies, mupirocin alone (S. aureus ATCC 29213 [6]): Colonies of mupirocin-resistant mutants were detected
mupirocin-resistant mutant colonies, mupirocin alone (S. aureus NCTC 12493 [7]): Colonies of mupirocin-resistant mutants were detected

CO[C@H]1/C=C/O[C@@]2(C)Oc3c(C)c(O)c4c(O)c(c(/C=N/N5CCN(C)CC5)c(O)c4c3C2=O)NC(=O)/C(C)=C\C=C\[C@H](C)[C@H](O)[C@@H](C)[C@@H](O)[C@@H](C)[C@H](OC(C)=O)[C@@H]1C [rifampicin]
MIC ([8]; Staphylococcus aureus, read-out: rifampicin MIC values of colonies on negative-control plates): ≥ 16 µg/mL
share of rifampicin-resistant mutants with MIC of 64 μg/mL or higher ([8]; agar dilution method): 100%
share of rifampicin-resistant mutants with MIC of 128 μg/mL or higher ([8]; agar dilution method): ≈ 75%
share of rifampicin-resistant mutants with MIC of 256 μg/mL or higher ([8]; agar dilution method): ≈ 25%
MIC [9]: > 256 µg/mL
MIC [10]: > 256 µg/mL

— patent US20240216421A1, “COMBINATION PRODUCT AND METHODS FOR PREVENTING THE EMERGENCE OF ANTIBIOTIC-RESISTANT BACTERIA UNDER ANTIBIOTIC TREATMENT” (DIOTHERIS, priority 2021, published 2024)
